From ChEMBL document CHEMBL1201862, “PubChem BioAssay data set” (2004)
The source made the active and inactive calls.

Legend:
Fatty acid synthase [1] = target: T1, Fatty acid synthase (Homo sapiens, UniProt P49327); assay: FAS thioesterase domain inhibitors, dose response, biochemical, kinetic fluorescence intensity (AID 624326); format: functional;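 also: rate of fluorescence rise from hydrolysis of a fluorogenic O-methyl fluorescein ester substrate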
Fatty acid synthase [2] = target: T1, Fatty acid synthase; assay: FAS thioesterase domain inhibitors, dose response, biochemical, endpoint fluorescence intensity, uHTS hits (AID 624327); format: functional;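 also: fluorescence from hydrolysis of an O-methyl fluorescein acyl ester substrate by the enzyme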
[3] = target: Voltage-dependent T-type calcium channel subunit alpha-1H (Homo sapiens, UniProt O95180); format: functional;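 also: channel activity triggered by adding a high calcium stimulation buffer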
Voltage-dependent T-type calcium channel subunit alpha-1H, sequence (O95180 whole entry): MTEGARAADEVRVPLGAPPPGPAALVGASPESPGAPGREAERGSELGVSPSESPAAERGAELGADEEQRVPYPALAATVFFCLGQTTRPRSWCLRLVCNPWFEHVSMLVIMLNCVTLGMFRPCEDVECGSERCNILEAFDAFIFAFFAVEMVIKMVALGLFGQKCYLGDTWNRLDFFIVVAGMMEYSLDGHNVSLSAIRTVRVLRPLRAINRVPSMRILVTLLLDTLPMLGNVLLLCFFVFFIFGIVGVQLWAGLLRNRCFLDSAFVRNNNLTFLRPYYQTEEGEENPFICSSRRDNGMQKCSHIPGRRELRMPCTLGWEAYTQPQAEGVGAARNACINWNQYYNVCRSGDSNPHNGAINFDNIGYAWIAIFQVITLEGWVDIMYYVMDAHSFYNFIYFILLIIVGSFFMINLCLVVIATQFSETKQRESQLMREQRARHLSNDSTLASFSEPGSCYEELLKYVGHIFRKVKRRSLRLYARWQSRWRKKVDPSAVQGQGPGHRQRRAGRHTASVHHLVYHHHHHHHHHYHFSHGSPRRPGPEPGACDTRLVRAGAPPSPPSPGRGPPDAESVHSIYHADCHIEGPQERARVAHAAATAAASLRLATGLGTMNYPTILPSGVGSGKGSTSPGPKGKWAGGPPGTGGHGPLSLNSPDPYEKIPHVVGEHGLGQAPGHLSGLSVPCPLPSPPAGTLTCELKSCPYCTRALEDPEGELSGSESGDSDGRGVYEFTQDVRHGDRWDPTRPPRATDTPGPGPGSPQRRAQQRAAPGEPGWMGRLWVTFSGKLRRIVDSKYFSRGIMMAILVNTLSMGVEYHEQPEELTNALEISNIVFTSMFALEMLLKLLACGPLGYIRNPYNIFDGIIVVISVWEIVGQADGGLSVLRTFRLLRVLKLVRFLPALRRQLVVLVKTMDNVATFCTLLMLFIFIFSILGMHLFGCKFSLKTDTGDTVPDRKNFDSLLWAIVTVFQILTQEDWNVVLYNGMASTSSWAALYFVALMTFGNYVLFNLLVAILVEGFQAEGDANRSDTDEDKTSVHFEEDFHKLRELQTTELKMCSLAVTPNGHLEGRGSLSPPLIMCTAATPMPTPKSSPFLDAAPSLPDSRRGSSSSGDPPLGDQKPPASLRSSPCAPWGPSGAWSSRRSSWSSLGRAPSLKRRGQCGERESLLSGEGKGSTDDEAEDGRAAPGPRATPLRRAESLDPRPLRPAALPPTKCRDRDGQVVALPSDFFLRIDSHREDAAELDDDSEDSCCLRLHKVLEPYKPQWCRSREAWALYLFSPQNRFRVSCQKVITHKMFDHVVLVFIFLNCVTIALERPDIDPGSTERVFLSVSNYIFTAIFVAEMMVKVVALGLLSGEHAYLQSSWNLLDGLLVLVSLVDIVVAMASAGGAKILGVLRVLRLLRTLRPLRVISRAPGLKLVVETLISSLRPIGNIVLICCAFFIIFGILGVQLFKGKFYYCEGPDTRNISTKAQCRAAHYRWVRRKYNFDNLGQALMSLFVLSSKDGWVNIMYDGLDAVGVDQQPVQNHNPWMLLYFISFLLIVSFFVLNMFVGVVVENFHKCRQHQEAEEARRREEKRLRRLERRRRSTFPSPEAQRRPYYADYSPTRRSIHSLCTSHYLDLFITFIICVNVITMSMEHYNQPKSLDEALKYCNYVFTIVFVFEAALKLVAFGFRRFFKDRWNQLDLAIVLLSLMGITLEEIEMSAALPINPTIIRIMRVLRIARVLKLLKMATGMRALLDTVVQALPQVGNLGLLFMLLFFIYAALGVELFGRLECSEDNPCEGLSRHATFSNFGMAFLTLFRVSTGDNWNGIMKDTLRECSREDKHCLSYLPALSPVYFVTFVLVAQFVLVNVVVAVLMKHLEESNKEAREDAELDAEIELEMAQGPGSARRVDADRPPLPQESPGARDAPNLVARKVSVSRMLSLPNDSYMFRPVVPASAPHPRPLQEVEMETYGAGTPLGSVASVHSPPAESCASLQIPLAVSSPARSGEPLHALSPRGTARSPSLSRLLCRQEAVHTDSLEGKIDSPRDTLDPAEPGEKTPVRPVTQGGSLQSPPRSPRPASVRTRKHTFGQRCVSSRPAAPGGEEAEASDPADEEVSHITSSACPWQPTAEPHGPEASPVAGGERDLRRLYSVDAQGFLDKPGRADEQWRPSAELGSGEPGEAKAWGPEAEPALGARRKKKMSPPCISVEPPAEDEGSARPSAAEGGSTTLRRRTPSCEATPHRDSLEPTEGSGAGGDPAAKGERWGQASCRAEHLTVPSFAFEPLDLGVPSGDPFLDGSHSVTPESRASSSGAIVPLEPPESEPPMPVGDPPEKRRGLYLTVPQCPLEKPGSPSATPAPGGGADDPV

[4] = C. albicans growth with fluconazole, confirmation, fluorescence, retest (AID 2467); format: functional, cell-based
[5] = NIH-3T3 fibroblast cytotoxicity, dose response, cytotoxicity control, cell-based, fluorescence, Alamar Blue, secondary assay (AID 2327); format: functional;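 also: NIH-3T3 mouse fibroblasts cultured with fluconazole at 8 µg/mL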
[6] = Luminescence Cell-Based Dose Confirmation HTS to Identify Activators of 5'UTR Stem-Loop Driven Alpha-Synuclein mRNA Translation in H4 Neuroglioblastoma Cells. [Related pubchem assays: 1829 (Project Summary), 1814 (Primary HTS)]; format: functional
H4 = assay: Luminescence Cell-Based Dose Response HTS to Identify Activators of 5'UTR Stem-Loop Driven Prion Protein mRNA Translation in H4 Neuroglioblastoma Cells. [Related pubchem assays: 1829 (Project Summary), 1814 (Primary HTS)]; format: functional; settings: Homo sapiens
[7] = Luminescence Cell-Based Dose Response HTS to Identify Activators of Luciferase Translation or Activity in H4 […] Cells. [Related pubchem assays: 1829 (Project Summary), 1814 (Primary HTS)]; format: functional
SN12K1 = assay: cells; format: functional; settings: Homo sapiens
P388 = assay: cells; format: functional; settings: Mus musculus
P388/ADR = assay: cells; format: functional; settings: Mus musculus
Caspase-6 = target: T2, Caspase-6 (Homo sapiens, UniProt P55212); assay: human caspase-6 inhibitors, dose response, biochemical, VEID-R110 fluorescence, cherry-pick (AID 720632)
T2 sequence (P55212 whole entry): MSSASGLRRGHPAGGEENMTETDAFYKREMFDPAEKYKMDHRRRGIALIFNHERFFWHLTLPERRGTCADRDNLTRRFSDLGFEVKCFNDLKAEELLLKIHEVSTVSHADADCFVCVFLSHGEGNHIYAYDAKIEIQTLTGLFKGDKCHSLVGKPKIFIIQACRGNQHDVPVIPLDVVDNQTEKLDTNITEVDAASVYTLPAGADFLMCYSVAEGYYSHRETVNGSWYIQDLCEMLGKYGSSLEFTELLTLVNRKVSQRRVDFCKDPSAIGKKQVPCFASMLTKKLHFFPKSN

[8] = inhibitors of intracellular T. cruzi replication, confirmation, NIH3T3 host cells, beta-gal luminescence (AID 2044); format: functional, cell-based;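 also: intracellular parasites grown in NIH/3T3 mouse fibroblasts as host cells; luminescent beta-galactosidase reporter signal from transgenic T. cruzi replicating inside host cells; inhibitors lower the luminescence signal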
[9] = cytotoxicity toward NIH3T3 fibroblasts, dose response, counter-screen, cell-based, ATP luminescence, mouse fibroblasts (AID 2010); format: functional;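 also: cells exposed to compound for about 90 hours before reading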
INS1 = assay: beta cell apoptosis inhibitors, cytokine rescue, dose response, luminescence, retest (AID 449756); format: functional, cell-based; settings: Rattus norvegicus;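 also: cell death triggered by IL-1 beta plus TNF-alpha plus IFN-gamma mixture; protective hits raise ATP signal compared with cytokine alone wells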
[10] = target: T3, Heat shock factor protein 1 (Mus musculus, UniProt P38532); assay: HSF1 potentiators in luciferase reporter cells, confirmation, cell-based, NIH3T3, luminescence, dose retest (AID 435004); format: functional;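 also: stress induced by proteasome inhibitor MG132 added 30 min after compound; luciferase reporter driven by HSF1 response element in NIH3T3 cells; actives raise luminescence as potentiators of the MG132 stress response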
T3 sequence (P38532 whole entry): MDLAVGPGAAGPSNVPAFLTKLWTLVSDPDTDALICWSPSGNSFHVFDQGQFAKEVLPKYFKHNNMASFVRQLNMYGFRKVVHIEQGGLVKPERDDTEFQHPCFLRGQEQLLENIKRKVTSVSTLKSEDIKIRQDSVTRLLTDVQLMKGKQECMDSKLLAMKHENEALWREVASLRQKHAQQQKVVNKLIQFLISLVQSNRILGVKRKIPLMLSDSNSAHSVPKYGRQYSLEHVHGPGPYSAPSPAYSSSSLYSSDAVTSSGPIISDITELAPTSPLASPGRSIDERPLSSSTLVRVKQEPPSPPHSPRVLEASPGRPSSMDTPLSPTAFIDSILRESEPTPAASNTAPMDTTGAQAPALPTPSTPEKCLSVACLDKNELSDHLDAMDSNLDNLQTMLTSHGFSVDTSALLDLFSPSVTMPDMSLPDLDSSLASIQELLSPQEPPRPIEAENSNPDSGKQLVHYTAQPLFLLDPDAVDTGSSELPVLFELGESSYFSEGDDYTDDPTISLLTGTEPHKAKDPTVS

T1 sequence (P49327 whole entry, the tested form may be a part): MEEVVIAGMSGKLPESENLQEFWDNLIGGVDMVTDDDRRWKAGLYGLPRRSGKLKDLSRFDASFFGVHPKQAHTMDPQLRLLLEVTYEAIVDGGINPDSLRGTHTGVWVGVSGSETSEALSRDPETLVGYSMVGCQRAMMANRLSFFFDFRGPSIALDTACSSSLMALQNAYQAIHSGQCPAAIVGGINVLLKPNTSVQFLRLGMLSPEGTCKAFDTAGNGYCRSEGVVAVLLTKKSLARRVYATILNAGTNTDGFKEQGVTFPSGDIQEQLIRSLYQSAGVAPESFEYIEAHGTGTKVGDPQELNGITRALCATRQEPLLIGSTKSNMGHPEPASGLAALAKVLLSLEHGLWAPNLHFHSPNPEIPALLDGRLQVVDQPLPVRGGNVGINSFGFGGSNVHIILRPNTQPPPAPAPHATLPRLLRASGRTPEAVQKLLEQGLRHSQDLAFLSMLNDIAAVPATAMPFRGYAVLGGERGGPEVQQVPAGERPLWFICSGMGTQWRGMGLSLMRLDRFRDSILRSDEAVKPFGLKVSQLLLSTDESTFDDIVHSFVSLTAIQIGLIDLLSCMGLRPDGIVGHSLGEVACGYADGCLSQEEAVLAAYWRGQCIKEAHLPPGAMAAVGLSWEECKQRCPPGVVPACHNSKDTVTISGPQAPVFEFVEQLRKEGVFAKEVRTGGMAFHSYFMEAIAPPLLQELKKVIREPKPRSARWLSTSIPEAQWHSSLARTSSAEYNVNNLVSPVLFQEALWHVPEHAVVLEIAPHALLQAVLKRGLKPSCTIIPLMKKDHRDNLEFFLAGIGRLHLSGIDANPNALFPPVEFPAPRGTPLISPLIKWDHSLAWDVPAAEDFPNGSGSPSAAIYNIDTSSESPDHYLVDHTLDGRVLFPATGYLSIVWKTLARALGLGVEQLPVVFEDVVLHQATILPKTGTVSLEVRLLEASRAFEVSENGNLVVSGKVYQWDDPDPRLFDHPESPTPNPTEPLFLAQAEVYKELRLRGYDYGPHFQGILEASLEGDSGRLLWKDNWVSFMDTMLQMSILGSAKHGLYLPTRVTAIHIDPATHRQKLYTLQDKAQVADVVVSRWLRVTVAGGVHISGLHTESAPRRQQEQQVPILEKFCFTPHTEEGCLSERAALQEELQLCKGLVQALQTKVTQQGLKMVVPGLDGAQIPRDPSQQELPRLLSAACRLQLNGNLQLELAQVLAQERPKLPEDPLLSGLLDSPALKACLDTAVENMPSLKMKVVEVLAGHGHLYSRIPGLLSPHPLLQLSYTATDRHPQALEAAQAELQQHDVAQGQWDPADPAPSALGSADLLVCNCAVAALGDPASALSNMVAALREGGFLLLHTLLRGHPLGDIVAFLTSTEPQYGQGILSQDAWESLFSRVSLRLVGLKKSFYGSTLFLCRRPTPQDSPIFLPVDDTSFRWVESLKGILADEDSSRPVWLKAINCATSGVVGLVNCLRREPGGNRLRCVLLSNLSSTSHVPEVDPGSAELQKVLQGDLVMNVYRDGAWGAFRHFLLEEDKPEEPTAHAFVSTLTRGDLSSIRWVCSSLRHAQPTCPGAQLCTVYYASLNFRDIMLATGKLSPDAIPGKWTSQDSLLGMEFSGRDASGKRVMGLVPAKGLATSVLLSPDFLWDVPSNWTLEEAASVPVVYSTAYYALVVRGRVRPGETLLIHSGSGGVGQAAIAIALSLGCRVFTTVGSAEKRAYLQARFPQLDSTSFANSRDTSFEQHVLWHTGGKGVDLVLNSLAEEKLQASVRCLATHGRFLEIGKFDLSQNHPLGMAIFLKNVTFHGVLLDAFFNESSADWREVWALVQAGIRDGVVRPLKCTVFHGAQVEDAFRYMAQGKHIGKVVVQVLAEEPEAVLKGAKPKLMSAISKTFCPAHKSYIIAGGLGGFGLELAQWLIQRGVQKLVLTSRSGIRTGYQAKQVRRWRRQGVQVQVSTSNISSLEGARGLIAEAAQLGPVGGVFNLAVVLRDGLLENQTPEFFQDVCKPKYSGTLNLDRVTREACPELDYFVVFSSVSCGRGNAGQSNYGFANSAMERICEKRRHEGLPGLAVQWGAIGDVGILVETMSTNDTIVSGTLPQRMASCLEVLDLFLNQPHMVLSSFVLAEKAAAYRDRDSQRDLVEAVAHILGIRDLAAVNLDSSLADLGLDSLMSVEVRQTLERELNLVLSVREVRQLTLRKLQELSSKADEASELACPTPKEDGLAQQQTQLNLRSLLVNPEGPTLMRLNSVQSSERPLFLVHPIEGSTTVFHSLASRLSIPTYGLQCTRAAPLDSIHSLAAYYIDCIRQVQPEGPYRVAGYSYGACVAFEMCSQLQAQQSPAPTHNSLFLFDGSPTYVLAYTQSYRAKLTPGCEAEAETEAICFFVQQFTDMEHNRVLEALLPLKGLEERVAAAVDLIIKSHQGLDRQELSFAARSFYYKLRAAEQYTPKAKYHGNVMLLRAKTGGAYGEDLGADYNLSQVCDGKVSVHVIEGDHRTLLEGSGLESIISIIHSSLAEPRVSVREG

O=C(CC1C[C@H](C(=O)N2CCOCC2)[C@@]2(CCC3CCCC3)c3[nH]c4ccccc4c3CCN2C1=O)NCCCn1ccnc1 (stereo partly specified)
IC50 (Fatty acid synthase [1]): 2.7 µM (active) | IC50 (Fatty acid synthase [2]): 4.37 µM (active)

Cc1ccc(C(CC(=O)NCc2ccco2)c2ccc(OC(C)C)cc2)cc1 (stereo unspecified)
EC50 [3]: 15.9 µM (active)

O=CNCCCc1nc2ccccc2n1Cc1cccc2ccccc12
EC50 [4]: 4.77 µM (active) | EC50 [5]: > 150 µM (inactive)

CC(NC(=O)CCC(=O)NC(C)C1COc2ccccc2O1)C1COc2ccccc2O1 (stereo unspecified)
EC50 [3]: 4.07 µM (active)

O=C(OCC(=O)N1CCCC1=O)c1nc(Cl)c(Cl)c(Cl)c1Cl
EC50 [6]: 14.4 µM (active) | EC50 (H4): > 120 µM (not active) | EC50 [7]: > 120 µM (not active)

O=S(=O)(O)c1cc2ccc1/C=C\c1ccc(cc1S(=O)(=O)O)/N=N\c1ccc(c(S(=O)(=O)O)c1)/C=C\c1ccc(cc1S(=O)(=O)O)/N=N\2
GI50 (SN12K1): > 100 µM (inactive) | GI50 (P388): > 100 µM (inactive) | GI50 (P388/ADR): > 100 µM (inactive)

O=C(COC(=O)c1ccc([N+](=O)[O-])o1)Nc1ncc(Cl)cc1Cl
AC50 (Caspase-6): 28.3 µM (active)

CCCCC/C=C\C/C=C\C/C=C\CCCCC(=O)O [GAMOLENIC ACID]
AC50 (Caspase-6): 0.505 µM (active)

Cc1ccc(-c2nnc(SCC(C)C)n2C)cc1
EC50 [6]: 11.5 µM (active) | EC50 (H4): 10.1 µM (active) | EC50 [7]: 88.6 µM (active)

Cc1c2c(cc3c1[nH]c1ccccc13)C(c1ccc(F)cc1)=NCC2
GI50 (SN12K1): 0.925 µM (active) | GI50 (P388): 0.809 µM (active) | GI50 (P388/ADR): 0.448 µM (active)

CC1=CC2c3cccc4[nH]cc(c34)CC2N(C)C1 (stereo unspecified)
GI50 (SN12K1): 27.2 µM (inactive) | GI50 (P388): 31 µM (inactive) | GI50 (P388/ADR): 14.2 µM (inactive)

CN1CCC(=NNC(=O)C(=O)Nc2ccc(F)cc2)CC1
EC50 [6]: 14.5 µM (active) | EC50 (H4): 15 µM (active) | EC50 [7]: 23.6 µM (active)

CCCCCCCC[n+]1cccc2c3ccccc3ccc21
EC50 [8]: 0.161 µM (active) | EC50 [9]: 8.8 µM (active) | EC50 [4]: 2.81 µM (active) | AC50 (INS1): 0.268 µM (active) | EC50 [5]: 69.2 µM (active)

CCSc1nc2ccccc2n1CCOc1ccccc1
EC50 [3]: 18.2 µM (active)

O=C(Nc1cc([N+](=O)[O-])ccc1O)c1ccc2c(c1)C(=O)N(Cc1ccco1)C2=O
AC50 (Caspase-6): 18.5 µM (active)

Sc1nc2cc(Cl)c3cccnc3c2o1
EC50 [4]: > 38 µM (not active) | EC50 [5]: > 150 µM (inactive) | EC50 [10]: > 260 µM (inactive)

O=C(Nc1cccc(NC(=O)c2ccc(-c3ccc(Br)cc3)o2)c1)c1ccccc1
EC50 [3]: 19.1 µM (active)

O=C1CC(N2CCN(c3ccc(S(=O)(=O)N4CCOCC4)cc3)CC2)C(=O)N1Cc1ccccc1 (stereo unspecified)
IC50 (Fatty acid synthase [1]): 7.53 µM (active) | IC50 (Fatty acid synthase [2]): 8.79 µM (active)

NC(S)=NNc1cccc(Cl)c1
EC50 [4]: > 38 µM (not active) | EC50 [5]: > 160 µM (inactive)
